{"source": "ChEMBL document CHEMBL4680138", "about": "“A 18β-glycyrrhetinic acid conjugate with Vorinostat degrades HDAC3 and HDAC6 with improved antitumor effects” (Eur J Med Chem, 2020)", "key": {"[1]": {"assay": "Half life in Sprague-Dawley rat at 5 mg/kg, iv measured up to 24 hrs by LC-MS/MS analysis", "type": "ADME, organism-based", "conditions": "in vivo"}, "[2]": {"assay": "Cmax in Sprague-Dawley rat at 5 mg/kg, iv measured up to 24 hrs by LC-MS/MS analysis", "type": "ADME, organism-based", "set-up": "route intravenous, dose 5 mg/kg, time <=24", "conditions": "in vivo"}, "Histone deacetylase 1": {"biological_target": "Histone deacetylase 1 (Homo sapiens, UniProt Q13547)", "sequence (Q13547 whole entry, the tested form may be a part)": "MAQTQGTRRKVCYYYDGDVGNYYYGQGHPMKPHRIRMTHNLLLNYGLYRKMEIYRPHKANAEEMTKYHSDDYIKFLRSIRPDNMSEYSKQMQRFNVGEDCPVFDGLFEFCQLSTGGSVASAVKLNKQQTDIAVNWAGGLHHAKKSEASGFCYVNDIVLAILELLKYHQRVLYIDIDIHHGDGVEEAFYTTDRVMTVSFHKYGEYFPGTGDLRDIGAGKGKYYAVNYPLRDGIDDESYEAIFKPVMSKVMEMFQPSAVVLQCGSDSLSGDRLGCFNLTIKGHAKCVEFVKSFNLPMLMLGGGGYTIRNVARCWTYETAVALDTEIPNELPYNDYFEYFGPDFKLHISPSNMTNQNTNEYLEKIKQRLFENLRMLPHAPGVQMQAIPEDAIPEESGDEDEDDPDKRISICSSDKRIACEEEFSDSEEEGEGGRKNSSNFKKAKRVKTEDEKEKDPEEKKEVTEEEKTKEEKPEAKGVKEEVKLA", "assay": "Inhibition of recombinant human C-terminal FLAG/His-tagged HDAC1 (1 to 482 residues) expressed in Sf9 insect cells using Boc-Lys (Ac)-AMC as substrate preincubated for 15 mins followed by substrate addition and measured after 60 mins by fluorescence based assay"}, "HL-60 [3]": {"system": "HL-60", "assay": "Induction of apoptosis in human HL-60 cells assessed as live cells at 1 uM measured after 24 hrs by Annexin-V/FITC and propidium iodide staining based flow cytometry (reference value: 89.29 %)", "type": "functional"}, "[4]": {"assay": "AUC (0 to infinity) in Sprague-Dawley rat at 5 mg/kg, iv measured up to 24 hrs by LC-MS/MS analysis", "type": "ADME, organism-based", "set-up": "route intravenous, dose 5 mg/kg, time <=24", "conditions": "in vivo"}, "HL-60 [5]": {"system": "HL-60", "assay": "Induction of apoptosis in human HL-60 cells assessed as late apoptotic cells at 1 uM measured after 24 hrs by Annexin-V/FITC and propidium iodide staining based flow cytometry (reference value: 7.24 %)", "type": "functional"}, "HL-60 [6]": {"system": "HL-60", "assay": "Induction of apoptosis in human HL-60 cells assessed as live cells at 2 uM measured after 24 hrs by Annexin-V/FITC and propidium iodide staining based flow cytometry (reference value: 89.29 %)", "type": "functional"}, "HL-60 [7]": {"system": "HL-60", "assay": "Induction of apoptosis in human HL-60 cells assessed as increase in accumulation at sub-G1 phase at 1 uM after 24 hrs by propidium iodide staining based flow cytometry (reference value: 2.72 %)", "type": "functional"}, "Histone deacetylase 2": {"biological_target": "Histone deacetylase 2 (Homo sapiens, UniProt Q92769)", "sequence (Q92769 whole entry)": "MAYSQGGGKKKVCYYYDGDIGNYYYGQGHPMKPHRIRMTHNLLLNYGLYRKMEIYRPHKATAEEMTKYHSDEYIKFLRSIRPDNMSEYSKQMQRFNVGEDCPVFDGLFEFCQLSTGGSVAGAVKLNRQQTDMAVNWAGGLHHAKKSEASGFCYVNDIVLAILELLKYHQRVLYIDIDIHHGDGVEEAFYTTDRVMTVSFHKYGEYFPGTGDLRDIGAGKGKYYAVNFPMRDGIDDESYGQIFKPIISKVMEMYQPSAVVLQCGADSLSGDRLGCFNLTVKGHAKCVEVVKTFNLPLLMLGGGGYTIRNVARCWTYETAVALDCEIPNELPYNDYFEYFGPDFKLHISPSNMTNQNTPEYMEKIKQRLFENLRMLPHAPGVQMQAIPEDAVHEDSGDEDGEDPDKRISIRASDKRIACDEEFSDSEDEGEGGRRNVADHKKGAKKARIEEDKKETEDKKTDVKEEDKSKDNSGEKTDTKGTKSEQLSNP", "assay": "Inhibition of recombinant human HDAC2 expressed in baculovirus infected Sf9 cells using Boc-Lys(Ac)-AMC as substrate preincubated for 15 mins followed by substrate addition and measured after 60 mins by fluorescence based assay", "type": "cell-based"}, "HL-60 [8]": {"system": "HL-60", "assay": "Induction of apoptosis in human HL-60 cells assessed as early apoptotic cells at 1 uM measured after 24 hrs by Annexin-V/FITC and propidium iodide staining based flow cytometry (reference value: 2.46 %)", "type": "functional"}, "HL-60 [9]": {"system": "HL-60", "assay": "Induction of apoptosis in human HL-60 cells assessed as necrotic cells at 1 uM measured after 24 hrs by Annexin-V/FITC and propidium iodide staining based flow cytometry (reference value: 1.01 %)", "type": "functional"}, "HL-60 [10]": {"system": "HL-60", "assay": "Induction of apoptosis in human HL-60 cells assessed as early apoptotic cells at 0.5 uM measured after 24 hrs by Annexin-V/FITC and propidium iodide staining based flow cytometry (reference value: 2.46 %)", "type": "functional"}, "HL-60 [11]": {"system": "HL-60", "assay": "Induction of apoptosis in human HL-60 cells assessed as necrotic cells at 2 uM measured after 24 hrs by Annexin-V/FITC and propidium iodide staining based flow cytometry (reference value: 1.01 %)", "type": "functional"}, "HL-60 [12]": {"system": "HL-60", "assay": "Induction of apoptosis in human HL-60 cells assessed as increase in accumulation at sub-G1 phase at 0.5 uM after 24 hrs by propidium iodide staining based flow cytometry (reference value: 2.72 %)", "type": "functional"}, "HL-60 [13]": {"system": "HL-60", "assay": "Induction of apoptosis in human HL-60 cells assessed as late apoptotic cells at 2 uM measured after 24 hrs by Annexin-V/FITC and propidium iodide staining based flow cytometry (reference value: 7.24 %)", "type": "functional"}, "HL-60 [14]": {"system": "HL-60", "assay": "Induction of apoptosis in human HL-60 cells assessed as late apoptotic cells at 0.5 uM measured after 24 hrs by Annexin-V/FITC and propidium iodide staining based flow cytometry (reference value: 7.24 %)", "type": "functional"}, "HL-60 [15]": {"system": "HL-60", "assay": "Upregulation of PARP cleavage in human HL-60 cells at 2 uM measured after 12 hrs by Western blot analysis", "type": "functional, cell-based"}, "HL-60 [16]": {"system": "HL-60", "assay": "Upregulation of acetylated alpha-tubulin level in human HL-60 cells at 2 uM measured after 12 hrs by Western blot analysis", "type": "functional, cell-based"}, "HL-60 [17]": {"system": "HL-60", "assay": "Antiproliferative activity against human HL-60 cells assessed as cell growth inhibition after 72 hrs by trypan blue staining based cell counting assay", "type": "functional", "conditions": "HL-60, 72 h"}, "PC-3": {"system": "PC-3", "assay": "Cytotoxicity against human PC-3 cells assessed as reduction in cell viability after 96 hrs by MTT assay", "type": "functional, cell-based", "conditions": "PC-3, 96 h"}, "HL-60 [18]": {"system": "HL-60", "assay": "Upregulation of acetylated H3 level in human HL-60 cells at 2 uM measured after 12 hrs by Western blot analysis", "type": "functional, cell-based"}, "HL-60 [19]": {"system": "HL-60", "assay": "Induction of apoptosis in human HL-60 cells assessed as increase in accumulation at sub-G1 phase at 2 uM after 24 hrs by propidium iodide staining based flow cytometry (reference value: 2.72 %)", "type": "functional"}, "HL-60 [20]": {"system": "HL-60", "assay": "Induction of apoptosis in human HL-60 cells assessed as necrotic cells at 0.5 uM measured after 24 hrs by Annexin-V/FITC and propidium iodide staining based flow cytometry (reference value: 1.01 %)", "type": "functional"}, "HL-60 [21]": {"system": "HL-60", "assay": "Induction of apoptosis in human HL-60 cells assessed as early apoptotic cells at 2 uM measured after 24 hrs by Annexin-V/FITC and propidium iodide staining based flow cytometry (reference value: 2.46 %)", "type": "functional"}, "HL-60 [22]": {"system": "HL-60", "assay": "Induction of apoptosis in human HL-60 cells assessed as live cells at 0.5 uM measured after 24 hrs by Annexin-V/FITC and propidium iodide staining based flow cytometry (reference value: 89.29 %)", "type": "functional"}, "[23]": {"biological_target": "Histone deacetylase 3/Nuclear receptor corepressor 2 (HDAC3/NCoR2) (Homo sapiens, UniProt O15379)", "sequence (O15379 whole entry, the tested form may be a part)": "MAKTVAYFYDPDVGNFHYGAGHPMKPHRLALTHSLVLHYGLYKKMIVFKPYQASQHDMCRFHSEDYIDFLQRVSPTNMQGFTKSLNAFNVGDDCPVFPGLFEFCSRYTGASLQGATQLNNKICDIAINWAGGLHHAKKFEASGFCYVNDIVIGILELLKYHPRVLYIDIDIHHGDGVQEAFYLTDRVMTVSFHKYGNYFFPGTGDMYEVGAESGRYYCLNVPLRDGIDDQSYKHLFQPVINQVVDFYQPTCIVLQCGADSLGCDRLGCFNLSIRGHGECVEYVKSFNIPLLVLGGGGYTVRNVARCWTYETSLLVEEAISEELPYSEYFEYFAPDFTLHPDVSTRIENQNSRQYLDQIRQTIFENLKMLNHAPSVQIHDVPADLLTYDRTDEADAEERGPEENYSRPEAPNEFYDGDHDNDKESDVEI", "sequence (Q9Y618 whole entry, further chain, the tested form may be a part)": "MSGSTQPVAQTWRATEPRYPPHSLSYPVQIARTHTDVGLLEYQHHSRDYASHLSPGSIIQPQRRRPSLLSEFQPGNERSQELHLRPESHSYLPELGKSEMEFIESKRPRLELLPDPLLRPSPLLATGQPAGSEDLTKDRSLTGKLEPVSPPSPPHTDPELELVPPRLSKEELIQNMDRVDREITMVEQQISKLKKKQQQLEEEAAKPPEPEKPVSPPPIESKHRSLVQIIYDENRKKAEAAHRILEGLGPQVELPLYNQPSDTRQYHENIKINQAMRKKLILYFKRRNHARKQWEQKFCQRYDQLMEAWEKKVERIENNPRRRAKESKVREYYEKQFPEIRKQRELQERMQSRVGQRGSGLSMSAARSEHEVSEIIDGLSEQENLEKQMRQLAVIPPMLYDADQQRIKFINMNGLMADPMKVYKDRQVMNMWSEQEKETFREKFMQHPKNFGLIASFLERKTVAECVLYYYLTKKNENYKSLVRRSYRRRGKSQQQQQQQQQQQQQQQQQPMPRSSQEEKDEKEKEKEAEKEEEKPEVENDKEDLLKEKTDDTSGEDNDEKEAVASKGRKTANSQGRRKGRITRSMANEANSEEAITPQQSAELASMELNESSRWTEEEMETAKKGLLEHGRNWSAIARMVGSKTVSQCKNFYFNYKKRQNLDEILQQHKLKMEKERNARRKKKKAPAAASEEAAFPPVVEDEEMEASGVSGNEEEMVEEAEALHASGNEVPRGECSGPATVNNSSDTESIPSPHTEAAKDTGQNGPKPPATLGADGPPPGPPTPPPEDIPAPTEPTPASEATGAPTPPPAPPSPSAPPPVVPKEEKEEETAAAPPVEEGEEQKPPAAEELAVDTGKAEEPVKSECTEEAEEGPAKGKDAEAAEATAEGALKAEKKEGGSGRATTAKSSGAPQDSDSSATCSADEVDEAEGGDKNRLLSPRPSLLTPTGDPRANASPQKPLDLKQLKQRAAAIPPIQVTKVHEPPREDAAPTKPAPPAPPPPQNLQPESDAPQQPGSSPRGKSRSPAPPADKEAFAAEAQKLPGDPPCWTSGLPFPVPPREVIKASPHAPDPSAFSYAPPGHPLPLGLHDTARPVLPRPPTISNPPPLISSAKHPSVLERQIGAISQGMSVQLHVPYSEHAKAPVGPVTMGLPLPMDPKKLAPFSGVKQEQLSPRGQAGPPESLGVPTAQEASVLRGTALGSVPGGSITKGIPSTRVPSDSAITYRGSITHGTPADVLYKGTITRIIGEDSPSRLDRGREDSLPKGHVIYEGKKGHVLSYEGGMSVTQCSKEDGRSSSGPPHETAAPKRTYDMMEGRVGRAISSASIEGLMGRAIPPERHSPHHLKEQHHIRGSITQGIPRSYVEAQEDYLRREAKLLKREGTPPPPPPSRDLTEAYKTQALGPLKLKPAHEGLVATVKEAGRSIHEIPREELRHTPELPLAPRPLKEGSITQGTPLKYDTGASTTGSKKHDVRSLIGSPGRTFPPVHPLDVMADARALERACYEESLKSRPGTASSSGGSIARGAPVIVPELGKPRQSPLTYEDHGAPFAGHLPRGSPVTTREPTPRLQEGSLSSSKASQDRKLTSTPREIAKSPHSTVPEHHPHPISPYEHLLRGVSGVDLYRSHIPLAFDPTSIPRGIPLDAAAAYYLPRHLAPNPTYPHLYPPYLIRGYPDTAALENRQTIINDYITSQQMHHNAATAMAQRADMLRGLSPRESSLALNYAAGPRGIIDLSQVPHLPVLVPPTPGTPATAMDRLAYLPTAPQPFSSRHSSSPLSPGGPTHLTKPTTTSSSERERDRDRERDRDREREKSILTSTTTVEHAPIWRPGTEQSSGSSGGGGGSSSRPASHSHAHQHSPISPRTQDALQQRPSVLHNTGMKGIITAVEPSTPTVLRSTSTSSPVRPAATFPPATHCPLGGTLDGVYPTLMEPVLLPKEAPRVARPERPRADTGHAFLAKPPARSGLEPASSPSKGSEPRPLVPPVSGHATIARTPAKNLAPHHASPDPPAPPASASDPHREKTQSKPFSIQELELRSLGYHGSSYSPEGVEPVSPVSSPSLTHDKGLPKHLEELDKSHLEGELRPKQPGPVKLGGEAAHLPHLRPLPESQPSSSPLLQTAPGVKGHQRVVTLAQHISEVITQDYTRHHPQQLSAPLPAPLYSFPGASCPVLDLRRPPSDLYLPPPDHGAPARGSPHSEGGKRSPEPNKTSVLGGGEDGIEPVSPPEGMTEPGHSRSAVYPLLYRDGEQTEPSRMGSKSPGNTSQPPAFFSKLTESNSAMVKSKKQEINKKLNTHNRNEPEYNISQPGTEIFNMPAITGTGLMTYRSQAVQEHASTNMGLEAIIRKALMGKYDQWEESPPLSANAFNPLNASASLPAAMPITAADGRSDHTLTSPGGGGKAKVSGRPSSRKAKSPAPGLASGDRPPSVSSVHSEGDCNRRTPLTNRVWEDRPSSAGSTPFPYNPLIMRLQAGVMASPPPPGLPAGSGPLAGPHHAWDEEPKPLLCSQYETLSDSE", "assay": "Inhibition of C-terminal His-tagged recombinant human HDAC3 (1 to 428 residues)/N-terminal GST-tagged recombinant human NCoR2 (395 to 489 residues) co-expressed in baculovirus infected Sf9 cells using Boc-Lys(Ac)-AMC as substrate preincubated for 15 mins followed by substrate addition and measured after 60 mins by fluorescence based assay"}, "[24]": {"biological_target": "T1, Protein deacetylase HDAC6 (Homo sapiens, UniProt Q9UBN7)", "T1 sequence (Q9UBN7 whole entry)": "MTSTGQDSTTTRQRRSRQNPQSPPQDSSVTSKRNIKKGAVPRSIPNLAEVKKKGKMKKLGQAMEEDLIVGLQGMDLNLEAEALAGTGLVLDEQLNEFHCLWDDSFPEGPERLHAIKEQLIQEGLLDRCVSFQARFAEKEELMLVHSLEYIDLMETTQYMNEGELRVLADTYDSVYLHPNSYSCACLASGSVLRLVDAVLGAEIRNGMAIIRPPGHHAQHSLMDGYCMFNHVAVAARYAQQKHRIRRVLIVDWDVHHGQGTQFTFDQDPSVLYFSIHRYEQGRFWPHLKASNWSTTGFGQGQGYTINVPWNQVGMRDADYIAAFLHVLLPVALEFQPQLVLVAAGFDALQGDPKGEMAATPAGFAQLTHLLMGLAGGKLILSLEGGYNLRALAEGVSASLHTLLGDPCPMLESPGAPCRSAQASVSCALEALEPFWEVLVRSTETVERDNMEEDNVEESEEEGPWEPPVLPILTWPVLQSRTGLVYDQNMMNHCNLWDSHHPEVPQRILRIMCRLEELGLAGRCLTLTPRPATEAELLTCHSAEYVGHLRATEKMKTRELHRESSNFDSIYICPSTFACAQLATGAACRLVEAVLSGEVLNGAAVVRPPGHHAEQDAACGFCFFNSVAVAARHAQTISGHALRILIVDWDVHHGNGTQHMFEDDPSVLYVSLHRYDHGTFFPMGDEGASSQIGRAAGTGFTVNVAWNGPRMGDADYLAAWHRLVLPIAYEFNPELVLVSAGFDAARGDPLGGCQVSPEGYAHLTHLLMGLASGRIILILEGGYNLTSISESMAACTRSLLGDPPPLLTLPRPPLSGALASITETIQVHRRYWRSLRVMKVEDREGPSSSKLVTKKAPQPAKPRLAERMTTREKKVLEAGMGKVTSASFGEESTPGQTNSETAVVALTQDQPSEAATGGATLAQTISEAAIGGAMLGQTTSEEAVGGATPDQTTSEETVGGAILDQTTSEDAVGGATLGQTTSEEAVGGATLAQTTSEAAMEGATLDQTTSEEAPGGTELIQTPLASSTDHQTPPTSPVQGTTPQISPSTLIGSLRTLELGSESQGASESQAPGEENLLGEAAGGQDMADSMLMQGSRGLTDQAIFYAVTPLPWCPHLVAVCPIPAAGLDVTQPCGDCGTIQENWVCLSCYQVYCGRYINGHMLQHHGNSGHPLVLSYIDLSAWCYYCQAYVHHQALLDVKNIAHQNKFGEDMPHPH", "assay": "Inhibition of recombinant C-terminal FLAG-tagged full length human HDAC6 expressed in baculovirus infected Sf9 cells using Boc-Lys(Ac)-AMC as substrate preincubated for 15 mins followed by substrate addition and measured after 60 mins by fluorescence based assay"}}, "note": "Calls of active or inactive are those of the source. The calls are words filed in the database; no cut-off is given here.", "data": [{"smiles": "CC1(C)C(=O)C(C#N)=C[C@]2(C)[C@H]3C(=O)C=C4[C@@H]5C[C@@](C)(C(=O)N6CCN(c7ccc(NC(=O)CCCCCCC(=O)NO)cc7)CC6)CC[C@]5(C)CC[C@@]4(C)[C@]3(C)CC[C@@H]12", "values": [{"measurement": "half-life", "setting": "[1]", "value": 16.8, "unit": "h"}, {"measurement": "Cmax", "setting": "[2]", "value": 10800, "unit": "ng/mL"}, {"measurement": "IC50", "setting": "Histone deacetylase 1", "value": 2510, "unit": "nM"}, {"measurement": "Activity", "setting": "HL-60 [3]", "value": 37.66, "unit": "%"}, {"measurement": "AUC(0-inf)", "setting": "[4]", "value": 3780, "unit": "ng·h/mL"}, {"measurement": "Activity", "setting": "HL-60 [5]", "value": 40.45, "unit": "%"}, {"measurement": "Activity", "setting": "HL-60 [6]", "value": 23.9, "unit": "%"}, {"measurement": "Activity", "setting": "HL-60 [7]", "value": 58.14, "unit": "%"}, {"measurement": "IC50", "setting": "Histone deacetylase 2", "value": 4830, "unit": "nM"}, {"measurement": "Activity", "setting": "HL-60 [8]", "value": 1.17, "unit": "%"}, {"measurement": "Activity", "setting": "HL-60 [9]", "value": 20.73, "unit": "%"}, {"measurement": "Activity", "setting": "HL-60 [10]", "value": 2.92, "unit": "%"}, {"measurement": "Activity", "setting": "HL-60 [11]", "value": 8.05, "unit": "%"}, {"measurement": "Activity", "setting": "HL-60 [12]", "value": 27.28, "unit": "%"}, {"measurement": "Activity", "setting": "HL-60 [13]", "value": 65.55, "unit": "%"}, {"measurement": "Activity", "setting": "HL-60 [14]", "value": 24.55, "unit": "%"}, {"measurement": "Activity", "setting": "HL-60 [15]", "value": "Active"}, {"measurement": "Activity", "setting": "HL-60 [16]", "value": "Active"}, {"measurement": "IC50", "setting": "HL-60 [17]", "value": 370, "unit": "nM"}, {"measurement": "IC50", "setting": "PC-3", "value": 470, "unit": "nM"}, {"measurement": "Activity", "setting": "HL-60 [18]", "value": "Active"}, {"measurement": "Activity", "setting": "HL-60 [19]", "value": 76.29, "unit": "%"}, {"measurement": "Activity", "setting": "HL-60 [20]", "value": 3.91, "unit": "%"}, {"measurement": "Activity", "setting": "HL-60 [21]", "value": 2.51, "unit": "%"}, {"measurement": "Activity", "setting": "HL-60 [22]", "value": 68.63, "unit": "%"}, {"measurement": "IC50", "setting": "[23]", "value": 635, "unit": "nM"}, {"measurement": "IC50", "setting": "[24]", "value": 368, "unit": "nM"}]}]}
